Experimental data taken from PubChem BioAssay (NCI).
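Grown in 96-well plates, cells were treated for 48 hours with each compound at five concentrations. Insufficient inhibition: endpoint recorded as highest concentration tested. TGI: total growth inhibition.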

How the values were obtained:
Experiment in all cases: inhibition of tumour cell growth, NCI panel, 48 h
786-0 renal = tested on: 786-0 renal
A498 renal = tested on: A498 renal
A549 NSCLC = tested on: A549 NSCLC
ACHN renal = tested on: ACHN renal
CAKI-1 renal = tested on: CAKI-1 renal
CCRF-CEM leukemia = tested on: CCRF-CEM leukemia
COLO 205 colon = tested on: COLO 205 colon
DLD-1 colon = tested on: DLD-1 colon
DMS 114 small cell lung = tested on: DMS 114 small cell lung
DMS 273 small cell lung = tested on: DMS 273 small cell lung
EKVX NSCLC = tested on: EKVX NSCLC
HCC-2998 colon = tested on: HCC-2998 colon
HCT-116 colon = tested on: HCT-116 colon
HCT-15 colon = tested on: HCT-15 colon
HL-60(TB) leukemia = tested on: HL-60(TB) leukemia
HOP-18 NSCLC = tested on: HOP-18 NSCLC
HOP-62 NSCLC = tested on: HOP-62 NSCLC
HOP-92 NSCLC = tested on: HOP-92 NSCLC
HT29 colon = tested on: HT29 colon
IGROV1 ovarian = tested on: IGROV1 ovarian
K-562 leukemia = tested on: K-562 leukemia
KM12 colon = tested on: KM12 colon
KM20L2 colon = tested on: KM20L2 colon
LOX IMVI melanoma = tested on: LOX IMVI melanoma
LXFL 529 NSCLC = tested on: LXFL 529 NSCLC
M14 melanoma = tested on: M14 melanoma
M19-MEL melanoma = tested on: M19-MEL melanoma
MALME-3M melanoma = tested on: MALME-3M melanoma
MOLT-4 leukemia = tested on: MOLT-4 leukemia
NCI-H226 lung = tested on: NCI-H226 lung
NCI-H23 lung = tested on: NCI-H23 lung
NCI-H460 lung = tested on: NCI-H460 lung
NCI-H522 lung = tested on: NCI-H522 lung
OVCAR-3 ovarian = tested on: OVCAR-3 ovarian
OVCAR-4 ovarian = tested on: OVCAR-4 ovarian
OVCAR-5 ovarian = tested on: OVCAR-5 ovarian
OVCAR-8 ovarian = tested on: OVCAR-8 ovarian
RPMI-8226 leukemia = tested on: RPMI-8226 leukemia
RXF 393 renal = tested on: RXF 393 renal
SF-268 CNS = tested on: SF-268 CNS
SF-295 CNS = tested on: SF-295 CNS
SF-539 CNS = tested on: SF-539 CNS
SK-MEL-2 melanoma = tested on: SK-MEL-2 melanoma
SK-MEL-28 melanoma = tested on: SK-MEL-28 melanoma
SK-MEL-5 melanoma = tested on: SK-MEL-5 melanoma
SK-OV-3 ovarian = tested on: SK-OV-3 ovarian
SN12C renal = tested on: SN12C renal
SNB-19 CNS = tested on: SNB-19 CNS
SNB-75 CNS = tested on: SNB-75 CNS
SNB-78 CNS = tested on: SNB-78 CNS
SR leukemia = tested on: SR leukemia
SW-620 colon = tested on: SW-620 colon
TK-10 renal = tested on: TK-10 renal
U251 CNS = tested on: U251 CNS
UACC-257 melanoma = tested on: UACC-257 melanoma
UACC-62 melanoma = tested on: UACC-62 melanoma
UO-31 renal = tested on: UO-31 renal
XF 498 CNS = tested on: XF 498 CNS

C/C(O)=C(\N=O)C(=O)NCCc1ccccc1
TGI (786-0 renal): > 100 µM | TGI (A498 renal): > 100 µM | TGI (A549 NSCLC): > 100 µM | TGI (ACHN renal): > 100 µM | TGI (CAKI-1 renal): > 100 µM | TGI (CCRF-CEM leukemia): > 100 µM | TGI (COLO 205 colon): > 66.9 µM | TGI (DLD-1 colon): > 100 µM | TGI (DMS 114 small cell lung): > 60 µM | TGI (DMS 273 small cell lung): > 93.4 µM | TGI (EKVX NSCLC): > 100 µM | TGI (HCC-2998 colon): > 100 µM | TGI (HCT-116 colon): > 70.1 µM | TGI (HCT-15 colon): > 55.9 µM | TGI (HL-60(TB) leukemia): > 100 µM | TGI (HOP-18 NSCLC): > 100 µM | TGI (HOP-62 NSCLC): > 100 µM | TGI (HOP-92 NSCLC): > 100 µM | TGI (HT29 colon): > 100 µM | TGI (IGROV1 ovarian): > 100 µM | TGI (K-562 leukemia): > 100 µM | TGI (KM12 colon): > 100 µM | TGI (KM20L2 colon): > 100 µM | TGI (LOX IMVI melanoma): > 58 µM | TGI (LXFL 529 NSCLC): > 100 µM | TGI (M14 melanoma): > 100 µM | TGI (M19-MEL melanoma): > 100 µM | TGI (MALME-3M melanoma): > 100 µM | TGI (MOLT-4 leukemia): > 100 µM | TGI (NCI-H226 lung): > 100 µM | TGI (NCI-H23 lung): > 100 µM | TGI (NCI-H460 lung): > 58.4 µM | TGI (NCI-H522 lung): > 100 µM | TGI (OVCAR-3 ovarian): > 100 µM | TGI (OVCAR-4 ovarian): > 100 µM | TGI (OVCAR-5 ovarian): > 100 µM | TGI (OVCAR-8 ovarian): > 100 µM | TGI (RPMI-8226 leukemia): > 100 µM | TGI (RXF 393 renal): > 100 µM | TGI (SF-268 CNS): > 100 µM | TGI (SF-295 CNS): > 100 µM | TGI (SF-539 CNS): > 100 µM | TGI (SK-MEL-2 melanoma): > 100 µM | TGI (SK-MEL-28 melanoma): > 100 µM | TGI (SK-MEL-5 melanoma): > 100 µM | TGI (SK-OV-3 ovarian): > 100 µM | TGI (SN12C renal): > 100 µM | TGI (SNB-19 CNS): > 100 µM | TGI (SNB-75 CNS): > 100 µM | TGI (SNB-78 CNS): > 100 µM | TGI (SR leukemia): > 100 µM | TGI (SW-620 colon): > 55.2 µM | TGI (TK-10 renal): > 79.2 µM | TGI (U251 CNS): > 100 µM | TGI (UACC-257 melanoma): > 100 µM | TGI (UACC-62 melanoma): > 100 µM | TGI (UO-31 renal): > 100 µM | TGI (XF 498 CNS): > 31.6 µM

COc1ccc(C=C2C(=O)OC(C)(C)OC2=O)cc1OC
TGI (786-0 renal): > 100 µM | TGI (A498 renal): > 100 µM | TGI (A549 NSCLC): > 100 µM | TGI (ACHN renal): > 100 µM | TGI (CAKI-1 renal): > 100 µM | TGI (CCRF-CEM leukemia): > 100 µM | TGI (COLO 205 colon): > 100 µM | TGI (DLD-1 colon): > 100 µM | TGI (DMS 114 small cell lung): > 100 µM | TGI (EKVX NSCLC): > 100 µM | TGI (HCC-2998 colon): > 100 µM | TGI (HCT-15 colon): > 100 µM | TGI (HOP-62 NSCLC): > 100 µM | TGI (HT29 colon): > 100 µM | TGI (IGROV1 ovarian): > 100 µM | TGI (K-562 leukemia): > 100 µM | TGI (KM12 colon): > 100 µM | TGI (KM20L2 colon): > 100 µM | TGI (LXFL 529 NSCLC): > 100 µM | TGI (M14 melanoma): > 100 µM | TGI (M19-MEL melanoma): > 100 µM | TGI (MALME-3M melanoma): > 100 µM | TGI (MOLT-4 leukemia): > 100 µM | TGI (NCI-H23 lung): > 100 µM | TGI (NCI-H460 lung): > 100 µM | TGI (NCI-H522 lung): > 100 µM | TGI (OVCAR-3 ovarian): > 100 µM | TGI (OVCAR-4 ovarian): > 100 µM | TGI (OVCAR-5 ovarian): > 100 µM | TGI (OVCAR-8 ovarian): > 100 µM | TGI (RPMI-8226 leukemia): > 100 µM | TGI (SF-268 CNS): > 100 µM | TGI (SF-295 CNS): > 100 µM | TGI (SK-MEL-2 melanoma): > 100 µM | TGI (SK-MEL-28 melanoma): > 100 µM | TGI (SK-MEL-5 melanoma): > 100 µM | TGI (SK-OV-3 ovarian): > 100 µM | TGI (SN12C renal): > 100 µM | TGI (SNB-19 CNS): > 100 µM | TGI (SNB-75 CNS): > 100 µM | TGI (SNB-78 CNS): > 100 µM | TGI (SW-620 colon): > 100 µM | TGI (TK-10 renal): > 100 µM | TGI (U251 CNS): > 100 µM | TGI (UACC-257 melanoma): > 100 µM | TGI (UACC-62 melanoma): > 100 µM | TGI (UO-31 renal): > 100 µM | TGI (XF 498 CNS): > 100 µM
